Data published in US5635516A, “(Thia) cycloalkyl[B]indole compounds as anti-inflammatory agents” (Adir et Compagnie, priority 1994, dated 1997).

Key:
[1] = tested on: phorbol 12-myristate-13-acetate induced ear swelling; assay: Acute cutaneous inflammation in mice (phorbol 12-myristate-13-acetate test); assay type: in vivo; conditions: Mus musculus; topical on ears of mice 30 minutes before phorbol 12-myristate-13-acetate; swelling of the ear at 6 hours
Procedure: In the following test, the measurements were carried out on groups of five mice. The tests on the groups of control mice are carried out at the same time as those on the groups of mice which have received the test compounds.
5 μg of phorbol 12-myristate-13-acetate in 20 μl of an ethanol/water mixture (8:2) are applied to the front and rear surfaces of the right ears of the mice, 30 minutes after the application in a similar manner of the test compounds or of the vehicle (2×20 μl at 5-minute intervals in absolute alcohol). The swelling of the ear is measured 6 hours later with the aid of a Dyer micrometer. That measurement is used as the inflammation index.

cyclo-oxygenase = assay: PGE2 production by rabbit granulocytes stimulated in vitro by A 23187 (enzyme immunoassay); assay type: cell-based; conditions: 10-^7 M
From the text: (§1) The object of this study is to determine the effects of compounds of the invention on the lipoxygenase and cyclo-oxygenase activities of rabbit granulocytes stimulated in vitro by A 23187, by measuring the levels of PGE2 and LTB4 thus liberated by means of an enzyme immunoassay (EIA). The granulocytes are isolated from rabbit blood collected from the main artery of the ear according to the method described by Trush et al. (1978). They are suspended, at a density of 10^6 cells/cm^3, in a phosphate buffer (mM): NaCl: 137; KCl: 2.68; Na2 HPO4 : 8.1; KH2 PO4 : 1.47; CaCl2 : 0.9; MgCl2 : 0.5 The freshly obtained granulocytes are pre-incubated for a period of 15 minutes at 37° C. in the presence of the test products. The results are expressed as percentages of the positive control. The values are presented as the mean±s.e.m. of three measurements carried out on the same day, for the "screening" study, and of three measurements carried out on three different days for the IC50 study. The IC50 values and the Hill number values (Hn) are determined by modelling using the Hill equation.

5-lipoxygenase = assay: LTB4 production by rabbit granulocytes stimulated in vitro by A 23187 (enzyme immunoassay); assay type: cell-based; conditions: 10-^7 M
From the text: as §1

| IC50 [1] [µM] | effect on the production of PGE2 (cyclo-oxygenase) | inhibition of the production of LTB4 (5-lipoxygenase) | Structure (SMILES) |
| --- | --- | --- | --- |
| 20 | without reducing | completely | CCOC(=O)Cn1c2c(c3cc(OCc4ccc5ccccc5n4)ccc31)CCCCCC2 [Example 2] |
| 15 |  |  | O=C(O)Cn1c2c(c3cc(OCc4ccc5ccccc5n4)ccc31)CCCCCC2 [Example 4, 2-{3-[(QUINOL-2-YL)METHYLOXY]-5,6,7,8,9,10,11-HEPTAHYDRO-CYCLOOCT[b]INDOLE}ACETIC ACID] |
